Among the data in patent publication US20100173910A1, “TRIAMINOPYRIMIDINE CYCLOBUTENEDIONE DERIVATIVES USED AS PHOSPHATASE CDC25 INHIBITORS” (IPDRN PHSTMS D.S.S., priority 2007, published 2010) are IC50 and melting point values, retold here.

Series [1] addresses T1, purified recombinant CDC25C enzyme (MBP-CDC25C protein) (Homo sapiens, UniProt P30307).
T1 construct: made in house
T1 sequence (P30307 1-473): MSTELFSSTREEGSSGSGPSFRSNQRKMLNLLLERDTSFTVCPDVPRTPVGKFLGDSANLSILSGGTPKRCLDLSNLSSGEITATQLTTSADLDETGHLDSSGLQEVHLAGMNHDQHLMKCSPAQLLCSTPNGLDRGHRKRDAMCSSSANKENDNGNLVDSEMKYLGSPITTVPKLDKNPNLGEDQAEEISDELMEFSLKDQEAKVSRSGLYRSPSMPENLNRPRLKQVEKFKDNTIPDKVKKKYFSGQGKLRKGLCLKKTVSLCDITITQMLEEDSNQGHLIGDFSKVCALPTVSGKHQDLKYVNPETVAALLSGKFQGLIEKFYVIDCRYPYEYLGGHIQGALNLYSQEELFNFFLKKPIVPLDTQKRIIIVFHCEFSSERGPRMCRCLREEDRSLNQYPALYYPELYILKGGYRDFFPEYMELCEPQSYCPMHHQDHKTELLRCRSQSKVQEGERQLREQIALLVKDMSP
Put plainly: Phosphatase activity of the purified recombinant CDC25C enzyme (OMFP dephosphorylation, fluorescence). Conditions: OMFP 500 μM, 4 hours at 30° C., three independent experiments; nested upper bounds; read-out: IC50 for the phosphatase activity of the purified recombinant CDC25-C enzyme. It is filed as biochemical. The procedure: i) Determination of the Phosphatase Activity of the Purified Recombinant CDC25C Enzyme:
The phosphatase activity of the MBP-CDC25C protein is evaluated through its dephosphorylation of 3-O-methylfluorescein-phosphate (OMFP) to form 3-O-methylfluorescein (OMF), determining the fluorescence of the reaction product at 475 nm. This assay can be used to identify inhibitors of the recombinant CDC25 enzyme. The preparation of the MBP-CDC25C fusion protein is described in the PCT patent application published under the number WO 01/44467.
The reaction is performed in 384-well plates in a final volume of 50 μl. The MBP-CDC25C protein (prepared as described hereinabove) is stored in the following elution buffer: 20 mM Tris-HCl pH 7.4; 250 mM NaCl; 1 mM EDTA; 1 mM dithiothreitol (DTT); 10 mM maltose. It is diluted to a concentration of 60 μM in the following reaction buffer: 50 mM Tris-HCl pH 8.2; 50 mM NaCl; 1 mM DTT; 20% glycerol. The background noise is determined using with the buffer without adding the enzyme. The products are tested at decreasing concentrations from 40 μM. The reaction is initiated by the addition of OMFP solution to a final concentration of 500 μM (prepared immediately before use from a 12.5 mM stock solution in 100% DMSO (Sigma #M2629)). After 4 hours at 30° C. in a disposable 384-well plate, the fluorescence measured at OD 475 nm is read on a Victor^2 plate reader (EGG-Wallac). The concentration that produces 50% inhibition of the enzyme reaction is calculated from three independent experiments. Only the values that fall within the linear part of the sigmoid curve are used for the linear regression analysis.

Series [2] relates to MIA PaCa-2 (human pancreatic carcinoma cells). Put plainly: Anti-proliferative activity, MIA PaCa-2 cells (WST1 colorimetric test). Format: cell-based. Conditions: MIA PaCa-2, 96 h, 96 hours treatment, up to 10 μM, nested upper bounds, read-out: IC50 for proliferation of the MIA PaCa-2 cell lines. The procedure: (§1) ii) Characterisation of Anti-Proliferative Activity:
(§2) By way of an example, the effect of treating two human cell lines MIA PaCa-2 and DU 145 with the compounds of the examples described hereinbefore will be studied. The cell lines DU 145 (human prostate carcinoma cells) and MIA PaCa-2 (human pancreatic carcinoma cells) were obtained from the American Tissue Culture Collection (Rockville, Md., USA). A 96-well plate was inoculated on day 0 with cells in 80 μl of Dulbecco's modified Eagle's medium (Gibco-Brl, Cergy-Pontoise, France) with 10% heat-inactivated foetal calf serum (Gibco-Brl, Cergy-Pontoise, France), 50,000 units/l of penicillin and 50 mg/l of streptomycin (Gibco-Brl, Cergy-Pontoise, France) and 2 mM of glutamine (Gibco-Brl, Cergy-Pontoise, France). The cells were treated on day 1 for 96 hours with increasing concentrations of each test compound up to 10 μM. At the end of this period, cell proliferation is quantified by means of a colorimetric test based on cleavage of the tetrazolium salt WST1 by the mitochondrial dehydrogenases in the viable cells, resulting in formation of formazan (Boehringer Mannheim, Meylan, France). These tests are performed in duplicate with 8 determinations per concentration tested. For each test compound, the values within the linear part of the sigmoid curve were subjected to linear regression analysis and used to estimate the IC50 inhibitory concentration. The products are solubilised in dimethylsulfoxide (DMSO) at a concentration of 10^−2 M and used in culture with a final DMSO concentration of 0.1%.
In general terms: Formazan colour is commonly taken as a measure of viable cells.

The test system of series [3] is DU 145 (human prostate carcinoma cells). Put plainly: Anti-proliferative activity, DU 145 cells (WST1 colorimetric test). Format: cell-based. Conditions: DU-145, 96 h, 96 hours treatment, up to 10 μM, nested upper bounds, read-out: IC50 for proliferation of the DU 145 cell lines. The procedure: as §1, §2

For `CN(CCNc1cc(N2CCCC2)nc(N2CCCC2)n1)CCNc1c(Nc2ccc(Cl)cc2)c(=O)c1=O` [Example 8, 3-[(4-chlorophenyl)amino]-4-({2-[{2-[(2,6-dipyrrolidin-1-ylpyrimidin-4-yl)amino]ethyl}(methyl)amino]ethyl}amino)cyclobut-3-ene-1,2-dione], the melting point (commonly the temperature of the solid-liquid transition) was 144 to 146 °C. Moreover, the IC50 in series [1] is not above 5 µM. Besides, the IC50 in series [2] is not above 10 µM. Further, in series [3], the IC50 is not above 10 µM.

With `O=c1c(NCCNc2cc(N3CCCC3)nc(N3CCCC3)n2)c(Nc2ccc(Cl)c(C(F)(F)F)c2)c1=O` [Example 10, 3-{[4-chloro-3-(trifluoromethyl)phenyl]amino}-4-({2-[(2,6-dipyrrolidin-1-ylpyrimidin-4-yl)amino]ethyl}amino)cyclobut-3-ene-1,2-dione], the melting point lay within 216 to 218 °C. In series [1], the IC50 was not above 15 µM. The IC50 in series [2] was not above 10 µM. The IC50 in series [3] was not above 10 µM.

Compound `COc1ccc(Nc2c(NCCNc3cc(N4CCCC4)nc(N4CCCC4)n3)c(=O)c2=O)cc1` [Example 18, 3-({2-[(2,6-dipyrrolidin-1-ylpyrimidin-4-yl)amino]ethyl}amino)-4-[(4-methoxyphenyl)amino]cyclobut-3-ene-1,2-dione] gave a melting point of 235 to 237 °C. In addition, in series [1], the IC50 was not above 1 µM. For the same compound, in series [2], the IC50 is not above 10 µM. The IC50 in series [3] is not above 10 µM.

`CC(C)(C)OC(=O)NCc1ccc(Nc2c(NCCNc3cc(N4CCCC4)nc(N4CCCC4)n3)c(=O)c2=O)cc1` [Example 25, tert-butyl (4-{[2-({2-[(2,6-dipyrrolidin-1-ylpyrimidin-4-yl)amino]ethyl}amino)-3,4-dioxocyclobut-1-en-1-yl]amino}benzyl)carbamate] displayed a melting point of 176 to 180 °C. Moreover, the IC50 in series [1] was not above 1 µM. Further, the IC50 in series [2] is not above 10 µM. Moreover, the IC50 in series [3] is not above 10 µM.

Consider `O=c1c(NCCNc2cc(N3CCCC3)nc(N3CCCC3)n2)c(NCc2ccc(Cl)cc2)c1=O` [Example 5, 3-[(4-chlorobenzyl)amino]-4-({2-[(2,6-dipyrrolidin-1-ylpyrimidin-4-yl)amino]ethyl}amino)cyclobut-3-ene-1,2-dione], for which the melting point lay in the range of 246 to 248 °C. Further, in series [1], the IC50 was not above 1 µM. Besides, the IC50 in series [2] is not above 10 µM. The IC50 in series [3] was not above 10 µM.
